Laboratory results as given in ChEMBL document CHEMBL1201862, “PubChem BioAssay data set” (2004).
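Cells were grown in 96-well plates and exposed to each compound for 48 hours at five concentrations; endpoints were interpolated linearly between bracketing concentrations, or set to the highest concentration if not reached. GI50 marks 50% less growth.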 Calls of active or inactive are those of the source. Cut-off read from the data, not from the text of the source: active = GI50 up to about 1.1 µM and inactive = higher.

Legend:
Test in all cases: NCI anticancer screen, dose series, 48 h
[1] = tested on: DMS-273
[2] = tested on: DLD-1
[3] = tested on: RXF 631
[4] = tested on: SNB-78
[5] = tested on: HOP-18
[6] = tested on: M19-MEL
[7] = tested on: KM-20L2
[8] = tested on: BT-549
[9] = tested on: MDA-N

SMILES	GI50 [1]	GI50 [2]	GI50 [3]	GI50 [4]	GI50 [5]	GI50 [6]	GI50 [7]	GI50 [8]	GI50 [9]
CN(C)NC1=C([N+](=O)[O-])C=NN(c2ccccc2)C1	1.75 µM (inactive)	1.83 µM (inactive)	1.53 µM (inactive)	2.17 µM (inactive)	1.81 µM (inactive)	1.81 µM (inactive)	1.9 µM (inactive)	–	–
CN(C)CCNC(=O)c1cccc2ccc(-c3ccc(O)cc3)nc12	0.743 µM (active)	2.47 µM (inactive)	–	4.43 µM (inactive)	2.81 µM (inactive)	1.9 µM (inactive)	6.68 µM (inactive)	6.82 µM (inactive)	2.39 µM (inactive)
COc1ccc(OC)c(NC(=O)CCC/C(CC(=O)c2ccc(O)c(OC)c2)=N\NC(=O)C[N+](C)(C)C)c1	> 100 µM (inactive)	> 100 µM (inactive)	> 100 µM (inactive)	–	> 100 µM (inactive)	> 100 µM (inactive)	> 100 µM (inactive)	–	–
O=C(O)/C=C\C(=O)c1ccc(Cl)cc1	20.2 µM (inactive)	35.2 µM (inactive)	> 100 µM (inactive)	33.7 µM (inactive)	> 69.2 µM (inactive)	24.3 µM (inactive)	36.7 µM (inactive)	–	–
Cc1cc([N+](=O)[O-])c(S(=O)(=O)c2ccccc2)c([N+](=O)[O-])c1	12.9 µM (inactive)	4 µM (inactive)	38.6 µM (inactive)	17.2 µM (inactive)	16.1 µM (inactive)	11.7 µM (inactive)	17.9 µM (inactive)	–	–
Cc1c(CCCl)c(Cl)n2c(nc3ccccc32)c1C#N	0.457 µM (active)	1.12 µM (active)	0.568 µM (active)	1.77 µM (inactive)	1.51 µM (inactive)	4.21 µM (inactive)	0.641 µM (active)	2.21 µM (inactive)	0.826 µM (active)
O=C1/C(=C/c2ccc3c(c2)OCO3)SC2C=Nc3ccccc3N12 (configuration not stated)	> 100 µM (inactive)	> 100 µM (inactive)	> 100 µM (inactive)	92.9 µM (inactive)	> 100 µM (inactive)	> 100 µM (inactive)	> 100 µM (inactive)	–	–
COc1cc(Br)c(/C=N/N=C(\N)NO)cc1OC	40.8 µM (inactive)	25.9 µM (inactive)	11.6 µM (inactive)	73.3 µM (inactive)	4.72 µM (inactive)	19.6 µM (inactive)	5.73 µM (inactive)	–	–
CN(C)c1nc(N(C)C)nc(N(C)C)n1 [ALTRETAMINE]	> 140 µM (inactive)	> 132 µM (inactive)	–	> 150 µM (inactive)	53.3 µM (inactive)	> 144 µM (inactive)	> 150 µM (inactive)	> 150 µM (inactive)	> 150 µM (inactive)
[O-][S+]1CSCS1 (configuration not stated)	> 100 µM (inactive)	> 100 µM (inactive)	85.9 µM (inactive)	91.8 µM (inactive)	> 100 µM (inactive)	> 100 µM (inactive)	> 100 µM (inactive)	–	–
N#Cc1c(-c2ccco2)cc(-c2ccc(N)cc2)[nH]c1=O	> 100 µM (inactive)	> 100 µM (inactive)	> 100 µM (inactive)	–	> 100 µM (inactive)	–	> 100 µM (inactive)	–	–
O=C(Nc1ccc(Br)cc1)C(=O)C(C(=O)c1ccccc1F)C1OC(=O)c2ccccc21 (configuration not stated)	31 µM (inactive)	26.2 µM (inactive)	34.8 µM (inactive)	27.8 µM (inactive)	26.7 µM (inactive)	17.2 µM (inactive)	40.1 µM (inactive)	–	–
COCOCCCCCO[Si](C)(C)C(C)(C)C	–	31.6 µM (inactive)	19.4 µM (inactive)	22.8 µM (inactive)	30.8 µM (inactive)	28.7 µM (inactive)	22.8 µM (inactive)	–	–
CC1CC(C)C(=O)C(C(=O)CC2CC(=O)NC2=O)C1 (configuration not stated)	> 100 µM (inactive)	> 100 µM (inactive)	72.6 µM (inactive)	> 100 µM (inactive)	> 100 µM (inactive)	> 100 µM (inactive)	> 100 µM (inactive)	–	–
O=C(c1nc2ccc(Cl)cc2[nH]c1=O)C(O)c1ccco1 (configuration not stated)	35.5 µM (inactive)	> 100 µM (inactive)	6.04 µM (inactive)	–	> 100 µM (inactive)	> 100 µM (inactive)	24.5 µM (inactive)	–	–
O=C(O)CSc1nnc(-c2ccco2)[nH]1	> 100 µM (inactive)	> 100 µM (inactive)	> 100 µM (inactive)	> 100 µM (inactive)	–	> 100 µM (inactive)	> 100 µM (inactive)	–	–
C=C=C(C(=O)OC)[S+]([O-])c1ccc([N+](=O)[O-])cc1[N+](=O)[O-] (configuration not stated)	37.4 µM (inactive)	16.2 µM (inactive)	42 µM (inactive)	–	44.2 µM (inactive)	25.4 µM (inactive)	26.5 µM (inactive)	–	–
COc1ccc(N(C)Sc2ccccc2)cc1	34.4 µM (inactive)	47.5 µM (inactive)	–	> 100 µM (inactive)	68.4 µM (inactive)	69 µM (inactive)	55.6 µM (inactive)	–	–
